# Values quoted from earlier work in patent publication US10174388B2, “Method for selection of agents influencing intestinal motility disorders and pain” (BioGaia AB, priority 2012, dated 2019).
# Where two headings read alike, the source gives them in different places.
# Conditions: baseline 197 minutes in both groups
substance,measurement,setting,value
simethicone,median daily crying time,day 7,177 min
same,median daily crying time,day 28,145 min
